Measured values: ChEMBL document CHEMBL4354881, “Optimization of Potent ATAD2 and CECR2 Bromodomain Inhibitors with an Atypical Binding Mode” (J Med Chem, 2020)

Columns and labels:
[1] = target: T1, ATPase family AAA domain-containing protein 2B (Homo sapiens, UniProt Q9ULI0); experiment: Binding affinity to human partial length ATAD2B (Q955 to R1082 residues) expressed in bacterial expression system by BROMOscan assay
T1 sequence (Q9ULI0 whole entry): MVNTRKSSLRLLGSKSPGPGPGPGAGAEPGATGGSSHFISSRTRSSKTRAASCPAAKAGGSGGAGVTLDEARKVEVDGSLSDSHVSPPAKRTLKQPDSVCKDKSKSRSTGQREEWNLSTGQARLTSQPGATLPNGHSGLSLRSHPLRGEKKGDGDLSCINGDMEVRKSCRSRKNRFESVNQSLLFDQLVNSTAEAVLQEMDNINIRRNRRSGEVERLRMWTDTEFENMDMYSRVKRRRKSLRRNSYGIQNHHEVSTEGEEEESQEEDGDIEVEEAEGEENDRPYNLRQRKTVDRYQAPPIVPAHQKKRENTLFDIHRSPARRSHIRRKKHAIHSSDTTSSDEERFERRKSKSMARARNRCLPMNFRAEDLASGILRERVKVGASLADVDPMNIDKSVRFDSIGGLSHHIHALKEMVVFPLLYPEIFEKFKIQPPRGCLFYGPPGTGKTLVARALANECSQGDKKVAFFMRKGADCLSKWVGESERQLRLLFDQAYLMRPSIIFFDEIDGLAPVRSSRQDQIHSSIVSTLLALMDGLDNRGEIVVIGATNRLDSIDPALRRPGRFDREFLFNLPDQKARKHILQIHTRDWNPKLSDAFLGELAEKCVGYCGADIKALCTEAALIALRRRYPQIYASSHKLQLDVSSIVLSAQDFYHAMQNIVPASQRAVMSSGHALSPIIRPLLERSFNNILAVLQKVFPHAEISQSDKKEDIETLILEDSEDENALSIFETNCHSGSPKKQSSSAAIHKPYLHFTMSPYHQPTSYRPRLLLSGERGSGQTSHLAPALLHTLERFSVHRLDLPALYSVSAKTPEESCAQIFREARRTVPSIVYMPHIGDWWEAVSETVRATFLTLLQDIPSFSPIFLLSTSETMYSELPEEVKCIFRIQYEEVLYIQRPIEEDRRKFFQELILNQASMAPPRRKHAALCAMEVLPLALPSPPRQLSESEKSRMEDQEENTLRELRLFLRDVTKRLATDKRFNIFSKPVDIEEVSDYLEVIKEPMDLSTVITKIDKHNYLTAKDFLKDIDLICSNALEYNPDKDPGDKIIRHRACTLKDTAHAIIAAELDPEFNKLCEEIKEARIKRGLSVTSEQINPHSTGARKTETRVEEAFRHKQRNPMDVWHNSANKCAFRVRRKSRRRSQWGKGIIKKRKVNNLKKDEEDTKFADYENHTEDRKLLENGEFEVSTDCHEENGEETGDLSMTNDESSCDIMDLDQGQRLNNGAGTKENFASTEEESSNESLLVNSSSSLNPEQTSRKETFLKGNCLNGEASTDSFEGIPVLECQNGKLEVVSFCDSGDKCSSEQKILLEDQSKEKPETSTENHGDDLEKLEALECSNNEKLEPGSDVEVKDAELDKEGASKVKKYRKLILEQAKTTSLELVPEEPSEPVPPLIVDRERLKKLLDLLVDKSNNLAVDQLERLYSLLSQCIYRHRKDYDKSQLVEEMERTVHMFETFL

[2] = target: Histone acetyltransferase KAT2A (Homo sapiens, UniProt Q92830); experiment: Binding affinity to human partial length GCN5L2 (E726 to K837 residues) expressed in bacterial expression system by BROMOscan assay
[3] = target: Bromodomain adjacent to zinc finger domain protein 2A (Homo sapiens, UniProt Q9UIF9); experiment: Binding affinity to human partial length BAZ2A (M1792 to L1905 residues) expressed in bacterial expression system by BROMOscan assay
[4] = target: T2, ATPase family AAA domain-containing protein 2 (Homo sapiens, UniProt Q6PL18); experiment: Displacement of Alexa Fluor 488-labeled ligand from FLAG-6His-Tev-fused ATAD2 (981 to 1121 residue) (unknown origin) measured after 30 mins by TR-FRET assay
T2 sequence (Q6PL18 whole entry): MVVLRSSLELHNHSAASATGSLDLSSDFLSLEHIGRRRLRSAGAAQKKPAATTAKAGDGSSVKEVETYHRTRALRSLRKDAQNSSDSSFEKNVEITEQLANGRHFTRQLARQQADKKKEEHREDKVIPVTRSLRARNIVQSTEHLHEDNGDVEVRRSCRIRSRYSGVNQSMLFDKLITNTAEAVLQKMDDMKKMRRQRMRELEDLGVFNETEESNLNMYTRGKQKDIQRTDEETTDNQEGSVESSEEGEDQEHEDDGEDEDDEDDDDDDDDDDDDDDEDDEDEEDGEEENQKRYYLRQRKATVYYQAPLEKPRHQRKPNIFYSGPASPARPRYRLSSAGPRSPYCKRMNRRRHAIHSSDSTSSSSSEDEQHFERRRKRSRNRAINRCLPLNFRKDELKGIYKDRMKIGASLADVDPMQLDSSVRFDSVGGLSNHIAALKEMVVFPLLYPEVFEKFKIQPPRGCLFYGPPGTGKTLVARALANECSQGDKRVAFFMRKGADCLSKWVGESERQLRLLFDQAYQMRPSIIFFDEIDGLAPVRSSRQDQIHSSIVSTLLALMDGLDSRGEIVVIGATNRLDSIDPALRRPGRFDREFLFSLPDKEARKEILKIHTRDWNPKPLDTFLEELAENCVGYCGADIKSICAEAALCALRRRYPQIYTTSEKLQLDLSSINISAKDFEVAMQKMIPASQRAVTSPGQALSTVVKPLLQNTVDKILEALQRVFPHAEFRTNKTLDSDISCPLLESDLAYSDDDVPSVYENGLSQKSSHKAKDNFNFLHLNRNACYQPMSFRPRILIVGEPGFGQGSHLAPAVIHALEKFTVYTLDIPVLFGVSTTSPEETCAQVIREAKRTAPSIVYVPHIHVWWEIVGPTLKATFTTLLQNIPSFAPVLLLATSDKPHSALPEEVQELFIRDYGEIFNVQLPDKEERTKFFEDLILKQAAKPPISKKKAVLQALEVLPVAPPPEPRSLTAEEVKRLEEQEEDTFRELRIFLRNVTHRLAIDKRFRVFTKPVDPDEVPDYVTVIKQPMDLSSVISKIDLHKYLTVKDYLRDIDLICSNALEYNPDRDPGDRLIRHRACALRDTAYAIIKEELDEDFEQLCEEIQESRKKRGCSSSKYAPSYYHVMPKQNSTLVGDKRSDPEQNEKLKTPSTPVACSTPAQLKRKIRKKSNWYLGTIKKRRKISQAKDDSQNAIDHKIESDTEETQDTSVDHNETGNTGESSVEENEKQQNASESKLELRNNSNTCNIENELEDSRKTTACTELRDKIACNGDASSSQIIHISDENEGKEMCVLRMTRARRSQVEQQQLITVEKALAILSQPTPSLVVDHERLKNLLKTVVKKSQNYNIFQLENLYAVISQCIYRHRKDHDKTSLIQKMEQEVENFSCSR

Sequence of Histone acetyltransferase KAT2A (Q92830 whole entry, the tested form may be a part): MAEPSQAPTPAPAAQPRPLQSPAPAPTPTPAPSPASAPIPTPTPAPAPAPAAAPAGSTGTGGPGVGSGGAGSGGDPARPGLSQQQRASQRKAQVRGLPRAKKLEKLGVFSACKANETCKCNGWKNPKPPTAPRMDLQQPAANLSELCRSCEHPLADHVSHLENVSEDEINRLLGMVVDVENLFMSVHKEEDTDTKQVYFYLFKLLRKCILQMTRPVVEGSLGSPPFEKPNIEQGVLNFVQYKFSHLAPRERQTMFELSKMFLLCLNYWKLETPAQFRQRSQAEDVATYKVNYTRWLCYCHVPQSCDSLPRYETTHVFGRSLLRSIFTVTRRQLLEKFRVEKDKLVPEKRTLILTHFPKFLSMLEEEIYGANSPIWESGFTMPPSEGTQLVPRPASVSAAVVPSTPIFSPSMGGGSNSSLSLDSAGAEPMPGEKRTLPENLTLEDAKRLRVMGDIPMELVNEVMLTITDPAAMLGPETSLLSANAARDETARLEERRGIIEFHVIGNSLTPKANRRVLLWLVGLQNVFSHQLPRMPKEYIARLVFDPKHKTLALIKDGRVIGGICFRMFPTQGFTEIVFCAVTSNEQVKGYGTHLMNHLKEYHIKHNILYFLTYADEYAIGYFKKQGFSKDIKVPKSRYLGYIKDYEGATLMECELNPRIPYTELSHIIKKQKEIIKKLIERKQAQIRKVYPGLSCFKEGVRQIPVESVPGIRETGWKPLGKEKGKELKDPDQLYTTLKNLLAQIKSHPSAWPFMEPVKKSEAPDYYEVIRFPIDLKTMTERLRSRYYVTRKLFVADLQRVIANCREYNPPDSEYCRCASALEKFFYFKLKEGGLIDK
Sequence of Bromodomain adjacent to zinc finger domain protein 2A (Q9UIF9 whole entry, the tested form may be a part): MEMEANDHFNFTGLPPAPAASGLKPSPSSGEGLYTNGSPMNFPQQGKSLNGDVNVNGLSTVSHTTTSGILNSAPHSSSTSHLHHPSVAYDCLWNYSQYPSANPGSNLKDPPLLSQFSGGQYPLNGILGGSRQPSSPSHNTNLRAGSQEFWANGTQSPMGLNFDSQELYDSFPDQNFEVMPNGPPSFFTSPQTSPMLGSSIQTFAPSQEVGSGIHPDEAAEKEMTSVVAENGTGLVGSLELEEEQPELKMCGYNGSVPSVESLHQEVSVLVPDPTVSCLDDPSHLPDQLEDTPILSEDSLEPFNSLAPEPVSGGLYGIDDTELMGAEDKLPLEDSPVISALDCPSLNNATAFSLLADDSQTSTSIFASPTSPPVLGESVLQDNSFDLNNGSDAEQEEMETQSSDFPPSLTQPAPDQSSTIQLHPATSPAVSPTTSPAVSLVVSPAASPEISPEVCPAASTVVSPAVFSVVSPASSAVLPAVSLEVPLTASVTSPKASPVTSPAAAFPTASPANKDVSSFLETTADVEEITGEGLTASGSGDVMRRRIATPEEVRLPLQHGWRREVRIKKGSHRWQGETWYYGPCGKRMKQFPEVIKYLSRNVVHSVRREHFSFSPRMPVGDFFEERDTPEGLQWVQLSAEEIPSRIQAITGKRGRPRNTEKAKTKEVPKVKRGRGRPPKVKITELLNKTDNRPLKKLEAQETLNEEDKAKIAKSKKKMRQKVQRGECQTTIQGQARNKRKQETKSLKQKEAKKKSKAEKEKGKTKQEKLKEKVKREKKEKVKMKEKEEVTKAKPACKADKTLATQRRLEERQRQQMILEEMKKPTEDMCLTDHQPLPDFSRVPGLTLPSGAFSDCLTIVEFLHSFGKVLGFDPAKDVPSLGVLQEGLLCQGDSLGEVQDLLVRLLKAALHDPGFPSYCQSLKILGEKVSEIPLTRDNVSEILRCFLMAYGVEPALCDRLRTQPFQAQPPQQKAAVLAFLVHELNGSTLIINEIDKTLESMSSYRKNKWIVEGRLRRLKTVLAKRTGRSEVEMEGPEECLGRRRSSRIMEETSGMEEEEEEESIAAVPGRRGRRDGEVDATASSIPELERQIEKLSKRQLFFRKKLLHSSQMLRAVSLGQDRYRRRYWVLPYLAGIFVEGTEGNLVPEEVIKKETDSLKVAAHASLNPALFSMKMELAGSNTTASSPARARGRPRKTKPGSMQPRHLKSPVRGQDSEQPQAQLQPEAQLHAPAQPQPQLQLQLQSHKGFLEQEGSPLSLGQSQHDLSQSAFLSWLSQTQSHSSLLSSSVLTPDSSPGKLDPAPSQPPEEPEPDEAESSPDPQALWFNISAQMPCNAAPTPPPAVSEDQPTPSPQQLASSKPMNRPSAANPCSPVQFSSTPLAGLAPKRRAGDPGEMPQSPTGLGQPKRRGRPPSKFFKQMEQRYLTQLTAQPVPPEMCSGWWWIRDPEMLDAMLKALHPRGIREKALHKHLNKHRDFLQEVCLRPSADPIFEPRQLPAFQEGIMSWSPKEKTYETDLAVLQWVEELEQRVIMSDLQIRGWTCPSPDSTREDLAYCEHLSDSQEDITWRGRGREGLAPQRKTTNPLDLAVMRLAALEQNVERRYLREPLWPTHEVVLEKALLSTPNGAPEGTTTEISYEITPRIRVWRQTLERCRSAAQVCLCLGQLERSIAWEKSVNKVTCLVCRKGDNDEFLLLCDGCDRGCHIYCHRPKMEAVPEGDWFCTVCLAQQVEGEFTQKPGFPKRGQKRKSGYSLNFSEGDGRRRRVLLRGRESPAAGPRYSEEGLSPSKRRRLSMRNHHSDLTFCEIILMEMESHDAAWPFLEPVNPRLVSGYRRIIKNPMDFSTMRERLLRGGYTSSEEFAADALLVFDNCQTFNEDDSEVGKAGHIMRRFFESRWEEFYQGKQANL

Kd [1]: 0.02 µM | Kd [2]: 0.251 µM | Kd [3]: 0.0158 µM | IC50 [4]: 0.0631 µM
SMILES: C[C@H]1CCN(S(=O)(=O)c2cc(NC(=O)CN3C(=O)N[C@@](C)(C4CC4)C3=O)ccc2Br)C1
